Cc1ccc(S(=O)[O-])cc1.[Na+]
solubility (mole fraction)
Details	in DMF	in acetone	in acetonitrile	in ethanol	in isopropanol	in methanol	in n-butanol	in n-propanol	in water
278.15 K	0.00114	0.00039	5.8e-05	0.0031	0.00083	0.0234	0.00032	0.00301	0.0172
283.15 K	0.00169	0.00047	7.7e-05	0.00328	0.00086	0.0313	0.00035	0.00311	0.0201
288.15 K	0.0025	0.00057	9.9e-05	0.00337	0.00089	0.04	0.00039	0.00321	0.0234
293.15 K	0.00365	0.00067	0.00013	0.00345	0.00093	0.0511	0.00043	0.00331	0.0272
298.15 K	0.00525	0.0008	0.00016	0.00354	0.00097	0.0665	0.00047	0.00347	0.0314
303.15 K	0.00747	0.00094	0.00021	0.00363	0.001	0.0851	0.00052	0.00364	0.0358
308.15 K	0.0105	0.00111	0.00027	0.00373	0.00105	0.106	0.00057	0.00381	0.0404
313.15 K	0.0146	0.0013	0.00033	0.00383	0.00109	0.13	0.00063	0.00401	0.0453
318.15 K	0.02	0.00151	0.00041	0.00393	0.00113	0.156	0.00069	0.00421	0.0514

From BigSolDB 2.1
